Measured values from publication PMC9234961 (Journal of Medicinal Chemistry, 2022).
Like-named read-outs stand apart in the source and are kept apart here.

Columns and labels:
NMDAR (1A/2B) [1] = molecular target: T1, NMDAR (1A/2B) (Homo sapiens, UniProt Q05586+Q13224); assay: SAFETYScan Ion Channel, Opener; format: cell-based
Description: (§1) Supplement jm1c02175_si_002.xlsx, sheet "SAFETYScan" | column: RC50 (uM); Max Response

nAChR(a4/b2) [2] = molecular target: T2, nAChR(a4/b2) (Homo sapiens, UniProt P17787+P43681); assay: SAFETYScan Ion Channel, Opener; format: cell-based
T2 sequence (P43681 29-627 limits assumed): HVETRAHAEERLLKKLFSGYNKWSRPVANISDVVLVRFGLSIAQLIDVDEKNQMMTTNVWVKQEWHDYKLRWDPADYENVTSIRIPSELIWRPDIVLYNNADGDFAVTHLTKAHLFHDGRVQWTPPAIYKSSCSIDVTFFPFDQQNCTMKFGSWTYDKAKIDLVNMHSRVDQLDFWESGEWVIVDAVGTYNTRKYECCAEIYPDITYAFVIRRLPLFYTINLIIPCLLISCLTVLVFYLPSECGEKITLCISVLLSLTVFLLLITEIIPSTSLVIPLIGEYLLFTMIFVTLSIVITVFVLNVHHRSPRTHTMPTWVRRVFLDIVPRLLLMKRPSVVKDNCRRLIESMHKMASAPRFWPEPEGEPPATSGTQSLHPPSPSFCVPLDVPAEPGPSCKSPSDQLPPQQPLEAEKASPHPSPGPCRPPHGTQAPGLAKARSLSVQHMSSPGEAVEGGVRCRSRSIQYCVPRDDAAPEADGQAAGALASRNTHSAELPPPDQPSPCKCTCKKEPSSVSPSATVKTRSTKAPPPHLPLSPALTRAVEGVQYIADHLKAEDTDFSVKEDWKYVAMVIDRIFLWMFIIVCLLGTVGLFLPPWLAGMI
T2 sequence (P17787 26-502): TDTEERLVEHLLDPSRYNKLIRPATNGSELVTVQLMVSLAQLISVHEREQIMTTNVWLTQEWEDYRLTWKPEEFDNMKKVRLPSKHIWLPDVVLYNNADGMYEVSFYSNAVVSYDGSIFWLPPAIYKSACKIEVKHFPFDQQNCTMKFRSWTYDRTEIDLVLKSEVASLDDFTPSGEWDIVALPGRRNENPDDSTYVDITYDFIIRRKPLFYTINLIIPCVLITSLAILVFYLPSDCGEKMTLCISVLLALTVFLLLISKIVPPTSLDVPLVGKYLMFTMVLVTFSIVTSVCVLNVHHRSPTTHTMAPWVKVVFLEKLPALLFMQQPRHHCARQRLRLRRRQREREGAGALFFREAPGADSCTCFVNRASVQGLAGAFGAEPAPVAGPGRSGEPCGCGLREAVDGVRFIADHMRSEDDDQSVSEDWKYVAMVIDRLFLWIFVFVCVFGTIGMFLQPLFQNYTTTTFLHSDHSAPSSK
Description: as §1

HTR3A [3] = molecular target: T3, HTR3A (Homo sapiens, UniProt P46098); assay: SAFETYScan Ion Channel, Opener; format: cell-based
T3 sequence (P46098 24-478): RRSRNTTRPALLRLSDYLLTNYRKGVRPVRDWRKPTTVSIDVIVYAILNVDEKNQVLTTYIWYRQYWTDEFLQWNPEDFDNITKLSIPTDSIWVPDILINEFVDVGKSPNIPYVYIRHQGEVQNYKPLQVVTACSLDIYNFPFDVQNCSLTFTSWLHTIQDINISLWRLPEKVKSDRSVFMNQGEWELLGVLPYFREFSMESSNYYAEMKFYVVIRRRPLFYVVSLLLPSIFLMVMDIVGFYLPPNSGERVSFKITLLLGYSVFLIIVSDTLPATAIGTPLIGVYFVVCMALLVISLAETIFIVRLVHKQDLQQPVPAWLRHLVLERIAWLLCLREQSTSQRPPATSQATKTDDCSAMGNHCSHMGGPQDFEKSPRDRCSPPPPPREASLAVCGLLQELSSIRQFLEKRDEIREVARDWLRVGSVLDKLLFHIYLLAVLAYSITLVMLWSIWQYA
Description: as §1

KvLQT1/minK [4] = molecular target: T4, KvLQT1/minK (Homo sapiens, UniProt P51787); assay: SAFETYScan Ion Channel, Opener; format: cell-based
T4 sequence (P51787 whole entry): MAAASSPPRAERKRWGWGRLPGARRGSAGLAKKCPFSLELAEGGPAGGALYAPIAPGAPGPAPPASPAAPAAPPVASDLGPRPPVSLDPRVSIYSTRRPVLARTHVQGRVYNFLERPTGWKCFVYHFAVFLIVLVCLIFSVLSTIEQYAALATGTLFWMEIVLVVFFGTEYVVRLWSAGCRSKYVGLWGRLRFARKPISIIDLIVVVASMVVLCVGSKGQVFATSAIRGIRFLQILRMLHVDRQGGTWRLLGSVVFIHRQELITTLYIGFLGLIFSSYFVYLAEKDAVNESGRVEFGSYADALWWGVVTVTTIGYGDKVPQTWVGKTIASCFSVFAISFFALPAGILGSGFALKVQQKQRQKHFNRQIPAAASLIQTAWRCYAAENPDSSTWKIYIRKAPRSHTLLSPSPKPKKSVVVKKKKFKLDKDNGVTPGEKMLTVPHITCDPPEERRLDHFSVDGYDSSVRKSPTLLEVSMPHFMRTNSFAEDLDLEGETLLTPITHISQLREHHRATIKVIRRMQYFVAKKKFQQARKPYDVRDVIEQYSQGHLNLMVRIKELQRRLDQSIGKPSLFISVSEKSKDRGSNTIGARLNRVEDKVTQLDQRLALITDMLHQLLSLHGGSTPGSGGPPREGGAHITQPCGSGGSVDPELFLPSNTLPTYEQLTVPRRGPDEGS
Description: as §1

GABAA = GABAA (Homo sapiens, UniProt P14867+P18507+P47870); assay: SAFETYScan Ion Channel, Opener; format: cell-based; details: read-out: Max Response
Description: as §1

hERG = hERG (Homo sapiens, UniProt Q12809); assay: SAFETYScan Ion Channel, Blocker; format: cell-based
Chain of hERG (Q12809 whole entry): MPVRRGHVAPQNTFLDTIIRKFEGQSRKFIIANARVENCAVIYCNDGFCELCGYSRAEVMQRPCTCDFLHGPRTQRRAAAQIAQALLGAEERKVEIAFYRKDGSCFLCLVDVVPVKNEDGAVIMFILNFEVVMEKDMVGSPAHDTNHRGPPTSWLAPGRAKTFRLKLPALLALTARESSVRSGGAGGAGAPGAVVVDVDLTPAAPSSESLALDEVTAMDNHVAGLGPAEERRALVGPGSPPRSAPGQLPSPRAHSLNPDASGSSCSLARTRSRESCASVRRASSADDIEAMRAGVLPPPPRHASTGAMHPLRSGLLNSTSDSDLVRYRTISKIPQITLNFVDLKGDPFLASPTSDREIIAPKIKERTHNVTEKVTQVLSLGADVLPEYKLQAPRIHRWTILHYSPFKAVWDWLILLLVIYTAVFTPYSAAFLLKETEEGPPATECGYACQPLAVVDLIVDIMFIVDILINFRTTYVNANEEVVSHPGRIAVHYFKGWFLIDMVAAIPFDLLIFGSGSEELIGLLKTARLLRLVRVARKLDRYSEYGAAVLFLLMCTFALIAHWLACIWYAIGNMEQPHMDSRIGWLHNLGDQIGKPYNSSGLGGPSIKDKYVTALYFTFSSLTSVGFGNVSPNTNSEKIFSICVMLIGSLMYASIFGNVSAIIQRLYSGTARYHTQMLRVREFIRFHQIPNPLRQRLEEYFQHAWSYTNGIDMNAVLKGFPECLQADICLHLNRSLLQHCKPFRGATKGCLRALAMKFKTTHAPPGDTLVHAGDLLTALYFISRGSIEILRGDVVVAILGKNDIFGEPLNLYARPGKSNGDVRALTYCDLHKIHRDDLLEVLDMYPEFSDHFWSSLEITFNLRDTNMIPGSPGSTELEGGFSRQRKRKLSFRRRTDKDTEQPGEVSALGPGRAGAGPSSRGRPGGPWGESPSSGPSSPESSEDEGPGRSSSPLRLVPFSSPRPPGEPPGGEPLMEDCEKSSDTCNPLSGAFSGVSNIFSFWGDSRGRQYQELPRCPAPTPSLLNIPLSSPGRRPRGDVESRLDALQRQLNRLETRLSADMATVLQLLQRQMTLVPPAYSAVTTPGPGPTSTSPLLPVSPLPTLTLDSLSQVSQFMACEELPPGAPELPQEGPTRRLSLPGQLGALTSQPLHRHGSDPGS
Description: as §1

NAV1.5 = NAV1.5 (Homo sapiens, UniProt Q14524); assay: SAFETYScan Ion Channel, Blocker; format: cell-based
Description: as §1

NMDAR (1A/2B) [5] = molecular target: T1, NMDAR (1A/2B); assay: SAFETYScan Ion Channel, Blocker; format: cell-based
Description: as §1

nAChR(a4/b2) [6] = molecular target: T2, nAChR(a4/b2); assay: SAFETYScan Ion Channel, Blocker; format: cell-based
Description: as §1

HTR3A [7] = molecular target: T3, HTR3A; assay: SAFETYScan Ion Channel, Blocker; format: cell-based
Description: as §1

CAV1.2 = CAV1.2 (Homo sapiens, UniProt Q13936); assay: SAFETYScan Ion Channel, Blocker; format: cell-based
Description: as §1

KvLQT1/minK [8] = molecular target: T4, KvLQT1/minK; assay: SAFETYScan Ion Channel, Blocker; format: cell-based
Description: as §1

[9] = In vivo pharmacokinetic study in Balb/C mice; parameters: species or system mouse; details: for Vd: 1 mg/kg, read-out: Vss
GR [10] = molecular target: T5, GR (Homo sapiens, UniProt P04150); assay: SAFETYScan NHR Protein Interaction, Agonist; format: cell-based
T5 sequence (P04150 1-777): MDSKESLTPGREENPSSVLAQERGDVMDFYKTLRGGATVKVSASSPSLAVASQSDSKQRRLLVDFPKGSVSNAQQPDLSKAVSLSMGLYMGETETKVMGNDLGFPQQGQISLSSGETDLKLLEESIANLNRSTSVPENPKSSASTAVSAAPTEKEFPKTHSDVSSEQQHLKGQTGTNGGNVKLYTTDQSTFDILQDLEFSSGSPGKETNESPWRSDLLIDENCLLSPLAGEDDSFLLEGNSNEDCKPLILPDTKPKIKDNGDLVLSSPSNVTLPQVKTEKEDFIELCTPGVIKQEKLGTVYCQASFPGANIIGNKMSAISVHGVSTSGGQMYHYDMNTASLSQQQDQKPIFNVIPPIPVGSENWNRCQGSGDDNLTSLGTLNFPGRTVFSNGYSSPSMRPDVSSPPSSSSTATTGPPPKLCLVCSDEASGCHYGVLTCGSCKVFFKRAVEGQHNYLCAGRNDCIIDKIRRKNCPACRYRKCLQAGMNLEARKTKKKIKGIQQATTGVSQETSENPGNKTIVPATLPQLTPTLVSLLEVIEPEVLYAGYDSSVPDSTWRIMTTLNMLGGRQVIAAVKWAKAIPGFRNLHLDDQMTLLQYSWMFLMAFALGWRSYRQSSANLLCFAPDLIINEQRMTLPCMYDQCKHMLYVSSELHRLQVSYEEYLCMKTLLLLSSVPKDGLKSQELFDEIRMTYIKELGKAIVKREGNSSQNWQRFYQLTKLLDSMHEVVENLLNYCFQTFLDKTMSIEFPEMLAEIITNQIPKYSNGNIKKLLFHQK
Description: as §1

GR [11] = molecular target: T5, GR; assay: SAFETYScan NHR Protein Interaction, Antagonist; format: cell-based
Description: as §1

T1 sequence (Q13224 27-1484, other chains not shown): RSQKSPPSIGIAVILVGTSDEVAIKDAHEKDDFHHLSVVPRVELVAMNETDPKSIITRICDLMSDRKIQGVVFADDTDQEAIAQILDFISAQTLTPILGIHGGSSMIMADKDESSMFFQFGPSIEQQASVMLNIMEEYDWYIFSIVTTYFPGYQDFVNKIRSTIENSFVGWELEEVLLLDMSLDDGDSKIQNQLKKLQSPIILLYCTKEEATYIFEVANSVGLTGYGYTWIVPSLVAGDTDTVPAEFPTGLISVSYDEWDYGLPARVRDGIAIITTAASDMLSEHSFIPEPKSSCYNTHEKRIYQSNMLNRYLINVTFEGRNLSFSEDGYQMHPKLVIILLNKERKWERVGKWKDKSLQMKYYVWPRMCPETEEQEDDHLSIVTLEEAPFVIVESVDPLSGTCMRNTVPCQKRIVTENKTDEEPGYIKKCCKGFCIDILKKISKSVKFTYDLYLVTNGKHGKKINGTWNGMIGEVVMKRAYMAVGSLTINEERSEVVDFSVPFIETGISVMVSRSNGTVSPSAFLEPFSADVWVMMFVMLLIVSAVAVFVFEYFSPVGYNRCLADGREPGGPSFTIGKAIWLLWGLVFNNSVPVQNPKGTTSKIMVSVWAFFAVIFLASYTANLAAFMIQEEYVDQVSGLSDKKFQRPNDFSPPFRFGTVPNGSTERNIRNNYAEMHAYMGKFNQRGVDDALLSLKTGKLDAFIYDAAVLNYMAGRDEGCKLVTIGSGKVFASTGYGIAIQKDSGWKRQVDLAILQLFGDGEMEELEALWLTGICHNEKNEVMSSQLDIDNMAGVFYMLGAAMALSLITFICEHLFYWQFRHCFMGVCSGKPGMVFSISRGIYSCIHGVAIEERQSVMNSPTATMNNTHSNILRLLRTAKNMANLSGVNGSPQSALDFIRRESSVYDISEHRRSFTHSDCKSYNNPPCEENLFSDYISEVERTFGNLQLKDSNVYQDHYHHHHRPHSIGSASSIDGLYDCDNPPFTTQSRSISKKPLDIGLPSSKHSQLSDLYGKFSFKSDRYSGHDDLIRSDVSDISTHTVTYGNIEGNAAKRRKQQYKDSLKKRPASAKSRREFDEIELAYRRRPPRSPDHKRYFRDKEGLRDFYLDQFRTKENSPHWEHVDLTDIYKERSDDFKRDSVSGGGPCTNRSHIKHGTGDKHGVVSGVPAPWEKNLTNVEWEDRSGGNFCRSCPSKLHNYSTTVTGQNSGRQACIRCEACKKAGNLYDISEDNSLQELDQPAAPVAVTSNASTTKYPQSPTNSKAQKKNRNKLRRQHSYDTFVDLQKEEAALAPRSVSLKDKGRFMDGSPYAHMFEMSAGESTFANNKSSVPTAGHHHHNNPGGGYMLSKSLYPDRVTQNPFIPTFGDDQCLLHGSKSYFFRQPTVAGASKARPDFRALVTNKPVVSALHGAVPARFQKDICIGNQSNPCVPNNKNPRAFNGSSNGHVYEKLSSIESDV

C[C@H]1C[C@@H](O)CN(c2ncc(Cl)c(Nc3ccc4c(c3)c3c(c(=O)n4C)OCC(F)(F)[C@H](C4CC4)N3)n2)C1 [12a CCT373566, (S)-10-((5-Chloro-2-((3R,5S)-3-hydroxy-5-methylpiperidin-1-yl)pyrimidin-4-yl)amino)-2-cyclopropyl-3,3-difluoro-7-methyl-1,2,3,4-tetrahydro-[1,4]oxazepino[2,3-c]quinolin-6(7H)-one]
Emax (NMDAR (1A/2B) [1]; read-out: Max Response): 1.31%
EC50 (NMDAR (1A/2B) [1]; read-out: RC50 (EC50)): > 10 µM
Emax (nAChR(a4/b2) [2]; read-out: Max Response): 0%
EC50 (nAChR(a4/b2) [2]; read-out: RC50 (EC50)): > 10 µM
Emax (HTR3A [3]; read-out: Max Response): 1.5%
EC50 (HTR3A [3]; read-out: RC50 (EC50)): > 10 µM
Emax (KvLQT1/minK [4]; read-out: Max Response): 3.79%
EC50 (KvLQT1/minK [4]; read-out: RC50 (EC50)): > 10 µM
Emax (GABAA): 4.81%
Emax (hERG; human, read-out: Max Response): 93%
IC50 (hERG; read-out: RC50 (IC50)): 1.44 µM
Emax (NAV1.5; read-out: Max Response): 1.35%
IC50 (NAV1.5; read-out: RC50 (IC50)): > 10 µM
Emax (NMDAR (1A/2B) [5]; read-out: Max Response): 0%
IC50 (NMDAR (1A/2B) [5]; read-out: RC50 (IC50)): > 10 µM
Emax (nAChR(a4/b2) [6]; read-out: Max Response): 7.49%
IC50 (nAChR(a4/b2) [6]; read-out: RC50 (IC50)): > 10 µM
Emax (HTR3A [7]; read-out: Max Response): 15%
IC50 (HTR3A [7]; read-out: RC50 (IC50)): > 10 µM
Emax (CAV1.2; read-out: Max Response): 0%
IC50 (CAV1.2; read-out: RC50 (IC50)): > 10 µM
Emax (KvLQT1/minK [8]; read-out: Max Response): 13.1%
IC50 (KvLQT1/minK [8]; read-out: RC50 (IC50)): > 10 µM
appearance of mice after dosing ([9]; 1 mg/kg i.v. and 5 mg/kg p.o., female Balb/C mice, after dosing and 24 h after dosing): appeared normal
increase in free concentration/exposure in vivo compared to CCT369260 ([9]; 5 mg/kg po, BALB/c mice): over fivefold increase
Vd ([9]; Balb/C, mouse, whole blood, intravenous, initial PK studies): 0.47 L/kg
CL as % Qh ([9]; female Balb/C mice): 6 % Qh
bioavailability ([9]; female, Balb/C, mouse, in vivo, po, 5 mg/kg): 44%
Vd ([9]; mouse, in vivo, female Balb/C mice): 0.47 L/kg
clearance ([9]; mouse, in vivo, iv, female Balb/C mice, 1 mg/kg i.v.): 5.7 mL/min/kg
half-life at 6 h ([9]; mouse, in vivo, po, 5 mg/kg, female Balb/C mice): 1.15 h
Cmax ([9]; mouse, in vivo, female Balb/C mice, 1 mg/kg i.v. and 5 mg/kg p.o.): 3.95 µM
CLu ([9]; unbound clearance, female Balb/C mice): 4670 mL/min/kg
Emax (GR [10]; read-out: Max Response): 0.05%
EC50 (GR [10]; read-out: RC50 (EC50)): > 10 µM
Emax (GR [11]; read-out: Max Response): 2.11%
IC50 (GR [11]; read-out: RC50 (IC50)): > 10 µM
